# Results from PubChem BioAssay (NCI).
#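 Five compound concentrations were applied to cells in 96-well plates for 48 hours; endpoints were derived by simple linear interpolation of the resulting dose-response curve. At the TGI there is no net growth.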
# Columns and labels:
# Assay in all cases: NCI tumour cell line growth inhibition, 48 h
# [1] = tested on: A498 renal
# [2] = tested on: A549 NSCLC
# [3] = tested on: CAKI-1 renal
# [4] = tested on: CCRF-CEM leukemia
# [5] = tested on: COLO 205 colon
# [6] = tested on: DLD-1 colon
# [7] = tested on: DMS 114 small cell lung
# [8] = tested on: DMS 273 small cell lung
# [9] = tested on: EKVX NSCLC
# [10] = tested on: HCC-2998 colon
# [11] = tested on: HCT-116 colon
# [12] = tested on: HCT-15 colon
# [13] = tested on: HL-60(TB) leukemia
# [14] = tested on: HOP-18 NSCLC
# [15] = tested on: HOP-62 NSCLC
# [16] = tested on: HOP-92 NSCLC
# [17] = tested on: HT29 colon
# [18] = tested on: IGROV1 ovarian
# [19] = tested on: K-562 leukemia
# [20] = tested on: KM12 colon
# [21] = tested on: KM20L2 colon
# [22] = tested on: LOX IMVI melanoma
# [23] = tested on: M19-MEL melanoma
# [24] = tested on: MALME-3M melanoma
# [25] = tested on: MCF7 breast
# [26] = tested on: MOLT-4 leukemia
# [27] = tested on: NCI-H226 lung
# [28] = tested on: NCI-H23 lung
# [29] = tested on: NCI-H460 lung
# [30] = tested on: NCI-H522 lung
# [31] = tested on: NCI/ADR-RES ovarian
# [32] = tested on: OVCAR-3 ovarian
# [33] = tested on: OVCAR-4 ovarian
# [34] = tested on: OVCAR-5 ovarian
# [35] = tested on: OVCAR-8 ovarian
# [36] = tested on: P388 leukemia
# [37] = tested on: P388/ADR leukemia
# [38] = tested on: RPMI-8226 leukemia
# [39] = tested on: RXF 393 renal
# [40] = tested on: SF-268 CNS
# [41] = tested on: SF-295 CNS
# [42] = tested on: SF-539 CNS
# [43] = tested on: SK-MEL-2 melanoma
# [44] = tested on: SK-MEL-28 melanoma
# [45] = tested on: SK-MEL-5 melanoma
# [46] = tested on: SK-OV-3 ovarian
# [47] = tested on: SN12C renal
# [48] = tested on: SN12K1 renal
# [49] = tested on: SNB-19 CNS
# [50] = tested on: SNB-75 CNS
# [51] = tested on: SNB-78 CNS
# [52] = tested on: SW-620 colon
# [53] = tested on: U251 CNS
# [54] = tested on: UACC-257 melanoma
# [55] = tested on: UACC-62 melanoma
# [56] = tested on: UO-31 renal
# [57] = tested on: XF 498 CNS
# [58] = tested on: 786-0 renal
# [59] = tested on: ACHN renal
# [60] = tested on: LXFL 529 NSCLC
# [61] = tested on: M14 melanoma
# [62] = tested on: RXF-631 renal
# [63] = tested on: SR leukemia
# [64] = tested on: TK-10 renal
compound,measurement,setting,value
COC(=O)c1ccc(N=NN(C)COc2ccc(Br)cc2)cc1,TGI,[1],> 100 µM
same,TGI,[2],> 100 µM
same,TGI,[3],> 100 µM
same,TGI,[4],> 100 µM
same,TGI,[5],> 100 µM
same,TGI,[6],> 100 µM
same,TGI,[7],> 100 µM
same,TGI,[8],> 100 µM
same,TGI,[9],> 100 µM
same,TGI,[10],87.7 µM
same,TGI,[11],> 100 µM
same,TGI,[12],> 100 µM
same,TGI,[13],59.7 µM
same,TGI,[14],> 100 µM
same,TGI,[15],> 100 µM
same,TGI,[16],> 100 µM
same,TGI,[17],> 100 µM
same,TGI,[18],> 100 µM
same,TGI,[19],> 100 µM
same,TGI,[20],> 100 µM
same,TGI,[21],> 100 µM
same,TGI,[22],> 100 µM
same,TGI,[23],> 100 µM
same,TGI,[24],> 100 µM
same,TGI,[25],> 100 µM
same,TGI,[26],> 92.6 µM
same,TGI,[27],> 100 µM
same,TGI,[28],> 100 µM
same,TGI,[29],> 100 µM
same,TGI,[30],> 100 µM
same,TGI,[31],> 100 µM
same,TGI,[32],> 100 µM
same,TGI,[33],> 100 µM
same,TGI,[34],> 100 µM
same,TGI,[35],> 100 µM
same,TGI,[36],> 100 µM
same,TGI,[37],> 100 µM
same,TGI,[38],> 79.8 µM
same,TGI,[39],> 100 µM
same,TGI,[40],> 100 µM
same,TGI,[41],> 100 µM
same,TGI,[42],> 100 µM
same,TGI,[43],> 100 µM
same,TGI,[44],> 100 µM
same,TGI,[45],> 100 µM
same,TGI,[46],> 100 µM
same,TGI,[47],> 100 µM
same,TGI,[48],> 100 µM
same,TGI,[49],> 100 µM
same,TGI,[50],> 100 µM
same,TGI,[51],> 100 µM
same,TGI,[52],> 100 µM
same,TGI,[53],> 100 µM
same,TGI,[54],> 100 µM
same,TGI,[55],> 100 µM
same,TGI,[56],> 100 µM
same,TGI,[57],> 100 µM
O=C(c1ccccc1)C1OC12C(=O)Nc1c(Cl)cc(Cl)cc12 (stereo unspecified),TGI,[58],> 100 µM
same,TGI,[1],> 100 µM
same,TGI,[2],> 100 µM
same,TGI,[59],> 85.1 µM
same,TGI,[3],> 78 µM
same,TGI,[4],27.2 µM
same,TGI,[5],41 µM
same,TGI,[6],45.7 µM
same,TGI,[7],> 100 µM
same,TGI,[8],47.7 µM
same,TGI,[9],> 100 µM
same,TGI,[10],> 100 µM
same,TGI,[11],> 71.9 µM
same,TGI,[12],> 70 µM
same,TGI,[13],36 µM
same,TGI,[14],> 100 µM
same,TGI,[15],> 100 µM
same,TGI,[16],> 93.2 µM
same,TGI,[17],> 100 µM
same,TGI,[18],> 100 µM
same,TGI,[19],46.1 µM
same,TGI,[20],> 100 µM
same,TGI,[21],> 100 µM
same,TGI,[22],> 61.7 µM
same,TGI,[60],> 53.9 µM
same,TGI,[61],> 82.4 µM
same,TGI,[23],> 77.6 µM
same,TGI,[24],> 100 µM
same,TGI,[26],31 µM
same,TGI,[27],> 100 µM
same,TGI,[28],> 100 µM
same,TGI,[29],> 100 µM
same,TGI,[30],34.6 µM
same,TGI,[32],> 100 µM
same,TGI,[33],> 39.9 µM
same,TGI,[34],> 100 µM
same,TGI,[35],51.1 µM
same,TGI,[38],> 100 µM
same,TGI,[39],> 100 µM
same,TGI,[62],> 100 µM
same,TGI,[40],> 100 µM
same,TGI,[41],> 100 µM
same,TGI,[42],> 100 µM
same,TGI,[43],> 100 µM
same,TGI,[44],> 100 µM
same,TGI,[45],> 100 µM
same,TGI,[46],> 100 µM
same,TGI,[47],> 91.2 µM
same,TGI,[49],> 100 µM
same,TGI,[50],29.5 µM
same,TGI,[51],99.9 µM
same,TGI,[63],31.1 µM
same,TGI,[52],35.4 µM
same,TGI,[64],> 100 µM
same,TGI,[53],> 100 µM
same,TGI,[54],> 100 µM
same,TGI,[55],> 100 µM
same,TGI,[56],> 100 µM
same,TGI,[57],65.1 µM
